Key:
Test in all cases: relative viability (nuclei count vs DMSO), 5 days (fraction); higher = more cells survive
[1] = compound: CCn1c(-c2nonc2N)nc2cnc(Oc3cccc(NC(=O)c4ccc(OCCN5CCOCC5)cc4)c3)cc21 + CC(C)C[C@H](NC(=O)[C@H](Cc1ccccc1)NC(=O)c1cnccn1)B(O)O [Bortezomib] (partner 0.002 µM)
Summary of the method: (§1)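 One day after seeding in 1536-well plates, lung cancer cell lines were dosed by pin tool. Dosing was either single-drug or a fixed anchor-drug dose plus five library-drug doses (not always all listed) in √10 steps. After 5 days, nuclei were stained in one fix-and-stain step and counted on 4× images, and relative viability is the nuclei count of treated wells over that of vehicle wells, given as the median of duplicate plates.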

[2] = compound: CCC1=CN=CN=C1N2CCN(CC2)CC3=NC4=C(N3)C=C(C=C4)C(F)(F)F + CC1(C)CCC(c2ccc(Cl)cc2)=C(CN2CCN(c3ccc(C(=O)NS(=O)(=O)c4ccc(N[C@H](CCN5CCOCC5)CSc5ccccc5)c(S(=O)(=O)C(F)(F)F)c4)cc3)CC2)C1 [Navitoclax] (partner 0.5 µM)
Summary of the method: as §1

[3] = compound: CCC1=CN=CN=C1N2CCN(CC2)CC3=NC4=C(N3)C=C(C=C4)C(F)(F)F + CS(=O)(=O)CCNCc1ccc(-c2ccc3ncnc(Nc4ccc(OCc5cccc(F)c5)c(Cl)c4)c3c2)o1 [Lapatinib] (partner 2 µM)
Summary of the method: as §1

[4] = compound: CCn1c(-c2nonc2N)nc2cnc(Oc3cccc(NC(=O)c4ccc(OCCN5CCOCC5)cc4)c3)cc21 + C[C@]1(O)C[C@@H](c2nc(-c3ccc4ccc(-c5ccccc5)nc4c3)c3c(N)nccn32)C1 [Linsitinib] (partner 1 µM)
Summary of the method: as §1

| Cell Line | relative viability ([1]; first compound 0.04 µM) | relative viability ([1]; first compound 0.1265 µM) | relative viability ([1]; first compound 0.4 µM) | relative viability ([1]; first compound 1.265 µM) | relative viability ([1]; first compound 4 µM) | relative viability ([2]; first compound 0.04 µM) | relative viability ([2]; first compound 0.1265 µM) | relative viability ([2]; first compound 0.4 µM) | relative viability ([2]; first compound 1.265 µM) | relative viability ([2]; first compound 4 µM) | relative viability ([3]; first compound 0.04 µM) | relative viability ([3]; first compound 0.1265 µM) | relative viability ([3]; first compound 0.4 µM) | relative viability ([3]; first compound 1.265 µM) | relative viability ([3]; first compound 4 µM) | relative viability ([4]; first compound 0.04 µM) | relative viability ([4]; first compound 0.1265 µM) | relative viability ([4]; first compound 0.4 µM) | relative viability ([4]; first compound 1.265 µM) | relative viability ([4]; first compound 4 µM) |
| --- | --- | --- | --- | --- | --- | --- | --- | --- | --- | --- | --- | --- | --- | --- | --- | --- | --- | --- | --- | --- |
| HARA | 1.19 | 0.943 | 0.36 | 0.176 | 0.145 | 1.18 | 1.13 | 1.15 | 1.11 | 1.19 | 0.894 | 0.762 | 0.687 | 0.602 | 0.866 | 1.04 | 0.733 | 1 | 0.634 | 0.698 |
| NCI-H2405 | 1.05 | 0.744 | 0.348 | 0.277 | 0.973 | 0.86 | 0.937 | 0.834 | – | 0.997 | 1.04 | 1.17 | 1.11 | – | 1.2 | 0.955 | 0.568 | 0.417 | 0.31 | 0.263 |
| 201T | 1.06 | 1.02 | 1.11 | 1.02 | 1.03 | 1.23 | 1.19 | 1.16 | 1.17 | 1.23 | 1.01 | 0.992 | 1.03 | 0.947 | 1.09 | 1.01 | 1.05 | 1.03 | 1.03 | 1.1 |
| PC-3 [JPC-3] | 0.958 | 0.867 | 0.727 | 0.772 | 0.63 | 0.912 | 0.781 | 0.745 | 0.733 | 0.775 | 0.473 | 0.425 | 0.374 | 0.441 | 0.523 | 0.945 | 1 | 0.969 | 0.968 | 0.947 |
| Calu-6 | 1.03 | 0.922 | 0.771 | 0.5 | 0.469 | 0.818 | 0.779 | 0.721 | 0.713 | 0.717 | 1.1 | 1.11 | 1.05 | 0.988 | 1.03 | 0.964 | 0.94 | 0.616 | 0.524 | 0.536 |
| NCI-H1703 | 0.369 | 0.283 | 0.178 | 0.187 | 0.178 | 0.901 | 1.13 | 1.1 | 0.85 | 1.08 | 0.966 | 0.819 | 0.921 | 0.804 | 0.923 | 0.709 | 0.838 | 0.436 | 0.464 | 0.294 |
| NCI-H838 | 0.729 | 0.397 | 0.319 | 0.385 | 0.31 | 1.23 | 1.12 | 1.11 | 1.14 | 1.07 | 1.09 | 0.876 | 0.92 | 0.692 | 1.03 | 0.863 | 0.49 | 0.439 | 0.392 | 0.289 |
| NCI-H1792 | 1.09 | 1 | – | 0.631 | 0.817 | 0.323 | 0.572 | 0.605 | 0.697 | 0.554 | 0.769 | 0.808 | 0.851 | 0.978 | 0.884 | 0.65 | 0.572 | – | 0.423 | 0.512 |
| COR-L23 | 1.08 | 0.646 | 0.238 | 0.185 | 0.193 | 1.02 | 0.853 | 1.02 | 0.959 | 0.968 | 0.979 | 0.914 | 0.74 | 0.781 | 0.92 | 1 | 0.785 | 0.521 | 0.172 | 0.148 |
| HOP-62 | 0.875 | 0.829 | 0.816 | 0.756 | 0.212 | 1.06 | 1.07 | 1.04 | 0.898 | 0.927 | 1.14 | 1.06 | 0.979 | 0.971 | 1.07 | 1.22 | 1.27 | 0.808 | 0.595 | 1.02 |
| NCI-H1915 | 1.16 | 0.94 | 0.958 | 0.653 | 0.314 | 0.819 | 0.735 | 0.847 | 0.722 | 0.809 | 0.927 | 0.89 | 0.995 | 0.957 | 1.06 | 1.16 | 1.11 | 1.07 | 1.07 | 1.06 |
| BEN | 0.747 | 0.655 | 0.321 | 0.306 | 0.303 | 0.0475 | 0.075 | 0.0493 | 0.0611 | 0.0644 | 0.535 | 0.731 | 0.597 | 0.492 | 0.437 | 0.931 | 0.935 | 0.799 | 0.311 | 0.313 |
| NCI-H1437 | 0.518 | 0.427 | 0.514 | 0.499 | 0.364 | 1.09 | 1 | 0.944 | 0.822 | 0.724 | 0.777 | 0.668 | 0.74 | 0.635 | 0.641 | 1.31 | 1 | 1.05 | 0.742 | 0.549 |
| EMC-BAC-2 | 1.18 | 0.967 | 0.792 | 0.731 | 0.442 | 1.15 | 1.14 | 1.14 | 1.14 | 1.2 | 0.889 | 0.864 | 0.86 | 0.743 | 0.982 | 1.03 | 0.839 | 0.814 | 0.834 | 0.877 |
| NCI-H2087 | – | 0.591 | 0.778 | 0.473 | 0.459 | 1.03 | 0.982 | 0.914 | 0.871 | 0.723 | 1.07 | 0.963 | 1.08 | 0.914 | 0.818 | – | 0.682 | 0.762 | 0.747 | 0.828 |
| LXF-289 | 1.03 | 1.04 | 0.932 | 0.728 | 0.646 | 1.08 | 0.912 | 0.948 | 0.885 | 0.896 | 1 | 0.853 | 0.845 | 0.974 | 0.899 | 1.08 | 1.06 | 0.955 | 0.978 | 0.973 |
| LOU-NH91 | 0.561 | 0.526 | 0.439 | 0.343 | 0.377 | 0.626 | 0.692 | 0.708 | 0.583 | 0.752 | 0.761 | 0.794 | 0.77 | 0.644 | 0.844 | 1 | 0.748 | 0.744 | 0.632 | 0.611 |
| NCI-H2347 | 1.1 | 0.959 | 0.792 | 0.49 | 0.649 | 0.711 | 0.733 | 0.783 | 0.665 | 0.729 | 1.06 | 0.793 | 0.985 | 0.828 | 1.1 | 0.981 | 0.927 | 0.93 | 0.447 | 0.48 |
| NCI-H1993 | 1.09 | 1.16 | – | 0.882 | 1.02 | 1.16 | 0.934 | 0.792 | 0.817 | 0.778 | 0.777 | 0.842 | 0.69 | 0.8 | 0.747 | 0.701 | 0.762 | – | 0.699 | 0.702 |
| HCC-827 | 0.99 | 1.04 | 0.906 | 0.666 | 0.885 | 1.08 | 1.03 | 1.03 | 0.903 | 0.937 | 0.201 | 0.182 | 0.184 | 0.165 | 0.178 | 0.974 | 0.907 | 0.94 | 0.992 | 0.823 |
| CAL-12T | 1.23 | 1.08 | 0.834 | – | 0.678 | 1.26 | 1.28 | 1.21 | 1.23 | 1.17 | – | 0.667 | 0.677 | 0.707 | 0.574 | 1.12 | 1.01 | 0.768 | 0.704 | 0.731 |
| PC-14 | 1.04 | 0.857 | 0.905 | 0.776 | 0.729 | 1.02 | 1.03 | 1.01 | 0.984 | 0.982 | 0.34 | 0.264 | 0.304 | 0.246 | 0.329 | 1 | 0.901 | 0.878 | 0.716 | 0.648 |
| NCI-H23 | 1.44 | 1.16 | – | 0.856 | 0.512 | 0.845 | 0.903 | 0.783 | 0.749 | 1.04 | 1.2 | 1.21 | 0.966 | 0.982 | 1.11 | 0.636 | 0.827 | – | 0.549 | 0.477 |
| SK-LU-1 | 1.5 | 0.921 | 0.608 | – | 0.504 | 0.78 | 0.762 | 0.929 | 0.697 | 0.868 | 0.924 | 0.855 | 0.926 | – | 0.902 | 1.17 | 0.861 | 0.906 | 0.439 | 0.423 |
| NCI-H727 | 1.44 | 0.983 | 0.787 | 0.97 | 0.88 | 0.487 | 0.501 | 0.357 | – | 0.35 | 0.82 | 0.799 | 0.802 | – | 0.741 | 0.265 | 0.379 | 0.406 | 0.506 | 0.268 |
| HCC-366 | 1.32 | 1.11 | 0.151 | 0.0688 | 0.0348 | 1.07 | 1.04 | 1 | – | 1.05 | 1.01 | 1.05 | 0.988 | – | 1.13 | 0.435 | 0.64 | 0.597 | 0.0751 | 0.0223 |
| SW 1573 | 0.984 | 1.04 | 0.871 | 0.575 | 0.41 | 0.95 | 1.09 | 0.709 | 0.801 | 0.891 | 1.12 | 0.949 | 1 | 1 | 1.08 | 0.905 | 0.744 | 0.833 | 0.479 | 0.342 |

Reference: the supplement of paper PMC10307832
